The target in one experiment is human P2X7R. Details: method as in PMID 28841278. Conditions: cited from earlier work.
In the next experiment the target is T1, hP2X7R (Homo sapiens, UniProt Q99572).
T1 construct: 3xFLAG (3flag); expressed in transfected cells; host or cells: rat striatum (female Wistar rats), transduced in vivo with the AAV vector rAAV_3flag-hP2X7R
T1 sequence (Q99572 1-595): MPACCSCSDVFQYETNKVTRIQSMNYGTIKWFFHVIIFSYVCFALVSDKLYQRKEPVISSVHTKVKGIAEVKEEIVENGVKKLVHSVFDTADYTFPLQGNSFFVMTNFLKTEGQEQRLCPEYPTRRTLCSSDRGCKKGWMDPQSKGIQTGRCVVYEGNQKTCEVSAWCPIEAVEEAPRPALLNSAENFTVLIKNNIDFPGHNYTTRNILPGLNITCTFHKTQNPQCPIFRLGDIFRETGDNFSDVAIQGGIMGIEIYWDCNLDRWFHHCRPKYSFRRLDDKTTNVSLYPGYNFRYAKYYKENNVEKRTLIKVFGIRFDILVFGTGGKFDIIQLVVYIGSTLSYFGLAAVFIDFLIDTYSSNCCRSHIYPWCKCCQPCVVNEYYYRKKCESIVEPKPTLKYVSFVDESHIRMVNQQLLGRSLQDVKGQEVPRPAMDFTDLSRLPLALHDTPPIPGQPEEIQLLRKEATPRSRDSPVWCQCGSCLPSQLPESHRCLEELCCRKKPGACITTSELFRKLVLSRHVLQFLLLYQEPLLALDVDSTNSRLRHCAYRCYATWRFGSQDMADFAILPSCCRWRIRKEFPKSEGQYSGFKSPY
Briefly: PET imaging in rats locally overexpressing hP2X7R in right striatum. It is filed as in vivo, rat. Conditions: 30 mg·kg^−1 s.c., 45 min prior to tracer injection. How it is done:
Uptake of [^11C]SMW139 was 1.5-fold higher in the right striatum compared with the contralateral striatum at 4–15 min p.i. (n = 3; Fig. 6A,B, and Supplementary Figure S5, 5 weeks after vector injection). […] (2.85 ± 0.69 vs. 2.30 ± 0.36 in contralateral striatum) throughout the remainder of the scanning time.
Female rats were injected with the hP2X7R expressing vector in the right striatum, and eGFP expressing vector in the left striatum, which is described in detail in the Supplementary Information. […] To confirm stable expression of hP2X7R during the time period in which PET scanning studies were conducted, autoradiography experiments were performed both prior to and following PET experiments. In a dedicated small animal PET scanner (nanoPET, Mediso Ltd.), 60 min dynamic PET scans were acquired immediately after intravenous administration of 16–20 MBq of [^11C]SMW139. […] 45 min prior to tracer injection. After data reconstruction (details in Supplementary Information), images were analysed using the freely available AMIDE software (version 0.9.2; http://amide.sourceforge.net). ROIs were drawn around ipsi- and contralateral striata. Results are expressed as standardised uptake values (SUVs) and error bars indicate standard deviation.
Stereotactic injection of viral vector […]
to a 10 µL Hamilton syringe. […]
dorsoventral -0.64 cm relative to bregma. […]
minutes before removing it slowly.
Rats were sacrificed for in
Dynamic PET imaging was performed using dedicated small animal NanoPET/CT and NanoPET/MR scanners (Mediso Ltd., Budapest, Hungary) which are equipped with identical PET components. […]
anaesthetised with 4% and 2% isoflurane in oxygen (1 L·min-1) for induction and maintenance, respectively. Rats were positioned on the scanner bed and their respiratory rate was monitored during the entire scan, and anaesthesia was adjusted whenever required. Dynamic PET scans were acquired immediately after intravenous (i.v.) administration of 16-20 MBq of [11C]SMW139 via the tail vein. For […]
hydroxypropyl)-β-cyclodextrin in water for injection 45 min prior to tracer injection. PET scans were acquired in list mode and rebinned into the following frame sequence: 4 × 5, 4 x 10, 2 x 30, 3x 60, 2 x 300, 1 x 600, 1 x 900 and 1 x 1200 s. Reconstruction was performed using a fully 3-dimensional reconstruction algorithm (Tera-TomoTM, Mediso Ltd.) with 4 iterations and 6 subsets, and an isotropic 0.4 mm voxel dimension. Images were analysed using the freely available AMIDE software (version 0.9.2; http://amide.sourceforge.net). 3D ellipsoid ROIs (dimensions x = 3.4 mm, y = 3.6 mm, z = 2.9 […]
mm) were drawn within ipsi- and contralateral striata. Results are expressed as standardised uptake values (SUVs) and error bars indicate standard deviation. SUV were calculated as follows, with cimg in MBq/mL, injected dose in MBq and bodyweight in kg:
An unpaired two-tailed t-test was used for statistical analysis of PET data, which was performed using […]
allowed to recover for 1 week after scanning. After 1 week of recovery following the final scan (12 weeks after stereotactic vector injection) animals were sacrificed, and brains were excised and stored […]
Extended single microdose toxicity study
A single microdose toxicity study according to EMEA guideline EMA/CPMP/ICH/286/1995 (December 2009) was performed in healthy Wistar rats at a 1000 times higher dose than the maximal dose […]
minimum specific activity of 18.5 GBq·µmol-1). Animals were allowed to acclimatise for 10 days, group-housed and in an enriched environment with food and water available ad libitum, and with a 12-hour light-dark cycle in a temperature controlled room.

Another experiment deals with T2, P2X7R (Homo sapiens, UniProt Q99572).
T2 construct: Snap frozen human post-mortem; tissue The Netherlands Brain Bank; host or cells: post mortem human temporal cortex (AD patients and non-neurological controls)
T2 sequence (Q99572 1-595): T1 sequence (Q99572 1-595)
Briefly: In vitro autoradiography on post mortem human brain tissue (AD patients and controls). Format: binding. The settings on record: blocker 10 µM, AD patients and controls.

Each structure is given as a SMILES string. “Also recorded” adds a separate entry of the source.

A word on the Ki: it is the equilibrium dissociation constant of an inhibitor or competing ligand from its target. Consider `COc1ccc(Cl)c(C(=O)NCC23CC4CC(CC(C4)C2)C3)c1` [compound 1], for which, at human P2X7R, the Ki is 9 nM.

In the case of `COc1ccc(Cl)c(C(=O)NCC23CC4CC(CC(F)(C4)C2)C3)c1` [compound 2], at human P2X7R, the Ki was 22 nM.

`O=C(NCC1(N2CCN(c3ccccc3)CC2)CCOCC1)c1cccnc1Sc1ccccc1` [JNJ-47965567, reference compound]: the “Effect of pre-treatment on [^11C]SMW139 uptake/binding in rAAV_3flag-hP2X7R striatum” value on hP2X7R was “down to baseline levels; also recorded: significantly decreased”. In addition, on P2X7R, the “Blocking of [^11C]SMW139 binding in post mortem human brain tissue” value is reported as “fully blocked; also recorded: virtually complete blocking”.

`COc1ccc(Cl)c(C(=O)NCC23CC4CC(F)(CC(F)(C4)C2)C3)c1` [compound 3]: at human P2X7R, the Ki is 23 nM.

Source of the values: paper PMC5920098, “Identification of the allosteric P2X7 receptor antagonist [^11C]SMW139 as a PET tracer of microglial activation” (Scientific Reports, 2018).
